Earlier results in US8765768B2, “Heterocyclic compounds and their uses” (Amgen Inc., priority 2010, dated 2014).

What was measured:
[1] = test system: ovalbumin-induced airway inflammation
[2] = test system: protein kinases
[3] = target: T1, p110δ (Homo sapiens, UniProt O00329)
T1 sequence (O00329 1-1044): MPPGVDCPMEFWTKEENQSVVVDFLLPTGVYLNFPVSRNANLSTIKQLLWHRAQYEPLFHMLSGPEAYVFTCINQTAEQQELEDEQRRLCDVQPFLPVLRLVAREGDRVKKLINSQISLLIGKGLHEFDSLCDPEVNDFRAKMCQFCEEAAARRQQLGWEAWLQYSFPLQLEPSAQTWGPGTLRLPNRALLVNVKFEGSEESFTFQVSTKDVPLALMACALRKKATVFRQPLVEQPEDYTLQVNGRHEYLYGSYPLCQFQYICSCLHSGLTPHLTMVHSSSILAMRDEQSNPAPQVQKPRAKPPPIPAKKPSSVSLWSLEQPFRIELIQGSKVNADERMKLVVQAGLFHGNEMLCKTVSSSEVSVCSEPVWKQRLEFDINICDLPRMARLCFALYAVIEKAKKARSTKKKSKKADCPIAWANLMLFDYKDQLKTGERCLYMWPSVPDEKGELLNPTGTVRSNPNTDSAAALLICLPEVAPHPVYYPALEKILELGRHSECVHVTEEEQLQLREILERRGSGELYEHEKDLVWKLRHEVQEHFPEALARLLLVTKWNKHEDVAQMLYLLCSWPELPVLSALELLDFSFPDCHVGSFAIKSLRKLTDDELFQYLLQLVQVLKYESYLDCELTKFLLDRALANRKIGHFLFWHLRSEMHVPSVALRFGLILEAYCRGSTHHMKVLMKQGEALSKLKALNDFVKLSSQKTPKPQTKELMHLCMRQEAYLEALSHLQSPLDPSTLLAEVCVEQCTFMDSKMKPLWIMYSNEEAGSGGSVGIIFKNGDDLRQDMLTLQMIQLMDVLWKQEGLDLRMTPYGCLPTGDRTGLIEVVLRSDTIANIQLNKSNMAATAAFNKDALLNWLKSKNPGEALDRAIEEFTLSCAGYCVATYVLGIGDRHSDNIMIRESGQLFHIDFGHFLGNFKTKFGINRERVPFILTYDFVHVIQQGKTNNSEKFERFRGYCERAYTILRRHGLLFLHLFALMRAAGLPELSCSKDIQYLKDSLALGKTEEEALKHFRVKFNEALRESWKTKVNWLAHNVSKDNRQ

[4] = test system: model of systemic lupus erythematosis; conditions: in vivo
[5] = test system: mouse model of rheumatoid arthritis; conditions: in vivo

In the case of `Cc1ccccc1-n1c(Cn2cnc3c(N)ncnc32)nc2cccc(C)c2c1=O` [IC87114], the “inflammation and disease in a murine model of asthma” value [1] is listed as “significantly ameliorate inflammation and disease”, the “activity against any protein kinases tested” value [2] is listed as “no activity” and the “inhibits p110δ” value [3] is listed as “high nanomolar range (triple digit)”.

For `O=C1NC(=O)/C(=C\c2ccc3nccnc3c2)S1` [AS 605240], the “onset of disease in a model of systemic lupus erythematosis” value [4] is given as “delay onset of disease” and the “efficacy in a mouse model of rheumatoid arthritis” value [5] is given as “efficacious”.
